{"source": "ChEMBL document CHEMBL1201862", "about": "“PubChem BioAssay data set” (2004)", "key": {"HT-1080": {"tested_on": "HT-1080", "test": "HT1080 cell viability loss – fluorescence readout (AID 620)", "format": "functional, cell-based", "conditions": "Homo sapiens"}, "[1]": {"test": "HEK-293T viability loss after treatment – luminescence, T-cell screen hits, cytotoxicity control for TCR NF-kB inhibitor project, dose response (AID 489026);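 also: cells exposed to compound about 14 hours before the viability readout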", "format": "functional, cell-based"}, "[2]": {"tested_on": "Streptococcus sp. 'group A'", "test": "Streptococcus pyogenes SK(-)GAS viability under kanamycin – luminescence, BacTiterGlo, confirmation, counter-screen for streptokinase expression inhibitor project, dose response (AID 1900)", "format": "functional, organism-based"}, "Cytochrome P450 2C19": {"biological_target": "Cytochrome P450 2C19 (Homo sapiens, UniProt P33261)", "sequence (P33261 whole entry)": "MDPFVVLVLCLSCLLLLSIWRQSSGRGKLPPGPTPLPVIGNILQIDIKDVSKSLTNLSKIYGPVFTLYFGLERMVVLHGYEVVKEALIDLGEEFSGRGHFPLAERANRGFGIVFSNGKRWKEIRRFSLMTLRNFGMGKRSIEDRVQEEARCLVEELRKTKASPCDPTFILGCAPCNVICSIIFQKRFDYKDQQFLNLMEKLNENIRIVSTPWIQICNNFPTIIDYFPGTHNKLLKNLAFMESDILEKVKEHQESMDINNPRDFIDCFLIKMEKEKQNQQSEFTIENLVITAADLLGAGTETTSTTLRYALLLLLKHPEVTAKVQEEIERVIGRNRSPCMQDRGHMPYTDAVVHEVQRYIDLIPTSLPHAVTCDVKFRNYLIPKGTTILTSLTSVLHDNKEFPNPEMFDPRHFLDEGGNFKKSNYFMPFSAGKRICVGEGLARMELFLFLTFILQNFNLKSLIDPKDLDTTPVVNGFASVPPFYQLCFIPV", "test": "Cytochrome panel assay with activity outcomes. Panel member name: p450-cyp2c19 Compounds with AC50 equal or less than 10 uM are considered active", "format": "functional", "conditions": "read-out: AC50"}, "[3]": {"test": "THP-1 cell cytotoxicity, dose response, cytotoxicity control for non-replicating M. tuberculosis project (AID 489025)", "format": "functional"}, "[4]": {"biological_target": "T1, Microphthalmia-associated transcription factor (Homo sapiens, UniProt O75030)", "T1 sequence (O75030 whole entry)": "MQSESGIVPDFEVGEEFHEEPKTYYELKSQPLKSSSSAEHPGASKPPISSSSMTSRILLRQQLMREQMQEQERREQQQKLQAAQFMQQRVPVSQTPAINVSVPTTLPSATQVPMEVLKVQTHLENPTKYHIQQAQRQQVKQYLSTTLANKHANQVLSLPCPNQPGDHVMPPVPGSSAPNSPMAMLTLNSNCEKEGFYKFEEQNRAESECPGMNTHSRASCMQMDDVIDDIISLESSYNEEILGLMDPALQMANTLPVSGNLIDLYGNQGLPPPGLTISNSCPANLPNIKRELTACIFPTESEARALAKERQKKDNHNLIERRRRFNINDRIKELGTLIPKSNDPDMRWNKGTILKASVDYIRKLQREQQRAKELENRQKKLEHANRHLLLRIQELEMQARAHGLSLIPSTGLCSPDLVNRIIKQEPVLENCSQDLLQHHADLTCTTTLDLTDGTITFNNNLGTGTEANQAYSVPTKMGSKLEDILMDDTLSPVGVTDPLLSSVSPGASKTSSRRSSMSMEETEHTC", "test": "reducers of TRPM1 reporter luminescence, concentration series – cell-based, SK-MEL-5, cherry-picked, set 3, MITF inhibitor project, dose response (AID 493073);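 also: SK-MEL-5 melanoma cells with luciferase driven by the MITF target TRPM1 promoter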", "format": "functional"}, "[5]": {"biological_target": "T2, Heat shock factor protein 1 (Mus musculus, UniProt P38532)", "T2 sequence (P38532 whole entry)": "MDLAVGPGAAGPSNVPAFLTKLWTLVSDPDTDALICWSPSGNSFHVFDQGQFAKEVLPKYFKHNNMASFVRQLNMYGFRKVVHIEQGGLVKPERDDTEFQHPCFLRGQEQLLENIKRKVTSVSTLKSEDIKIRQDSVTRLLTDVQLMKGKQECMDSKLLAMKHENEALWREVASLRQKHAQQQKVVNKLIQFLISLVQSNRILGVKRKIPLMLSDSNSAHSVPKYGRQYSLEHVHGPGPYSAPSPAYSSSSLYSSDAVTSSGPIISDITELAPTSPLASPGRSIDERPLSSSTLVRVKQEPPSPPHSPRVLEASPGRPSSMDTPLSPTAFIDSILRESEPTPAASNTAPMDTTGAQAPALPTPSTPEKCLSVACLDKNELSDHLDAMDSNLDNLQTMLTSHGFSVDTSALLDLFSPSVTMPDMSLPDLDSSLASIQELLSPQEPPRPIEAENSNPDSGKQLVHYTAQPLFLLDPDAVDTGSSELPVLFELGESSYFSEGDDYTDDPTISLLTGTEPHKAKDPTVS", "test": "decrease of HSF1-responsive luciferase luminescence – cell-based, NIH3T3, dose retest, confirmation (AID 2382);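 also: NIH3T3 fibroblasts with HSF1-driven luciferase reporter stressed by proteasome inhibitor MG132; luminescence from HSF1-driven luciferase expression after 8 hours of MG132 stress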", "format": "functional"}, "[6]": {"test": "viability of PTEN-deleted HCT116 cells – cell-based, HCT116 PTEN knockout, dose response (AID 1047);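 also: cells exposed to compound for 60 hours before readout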", "format": "functional"}, "Streptokinase A": {"biological_target": "T3, Streptokinase A (Streptococcus pyogenes serotype M1, UniProt P10520)", "T3 sequence (P10520 whole entry)": "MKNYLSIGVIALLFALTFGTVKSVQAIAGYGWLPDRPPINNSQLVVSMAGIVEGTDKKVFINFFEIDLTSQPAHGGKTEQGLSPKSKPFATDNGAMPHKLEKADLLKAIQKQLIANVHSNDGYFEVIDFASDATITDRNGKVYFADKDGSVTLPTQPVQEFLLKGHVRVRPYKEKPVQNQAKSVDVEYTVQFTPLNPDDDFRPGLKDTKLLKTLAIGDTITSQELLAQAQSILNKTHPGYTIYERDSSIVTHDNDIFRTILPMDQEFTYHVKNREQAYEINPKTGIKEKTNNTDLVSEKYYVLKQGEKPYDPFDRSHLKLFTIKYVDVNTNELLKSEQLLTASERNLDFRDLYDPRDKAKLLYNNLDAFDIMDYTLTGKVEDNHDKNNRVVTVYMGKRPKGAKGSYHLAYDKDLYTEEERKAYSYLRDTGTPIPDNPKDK", "test": "viability-normalized secreted streptokinase activity reduction – plasminogen activation absorbance, OD405, dose response (AID 1914)", "format": "functional, Streptococcus pyogenes M1 GAS"}, "Streptococcus": {"tested_on": "Streptococcus", "test": "GAS UMAA2166 growth inhibition – luminescence, BacTiterGlo, counter-screen for streptokinase expression inhibitor project, dose response (AID 1915);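 also: potency for reduction of bacterial viability or growth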", "format": "functional, organism-based"}, "H4 [7]": {"tested_on": "H4", "test": "Inhibitors of Prion Protein 5' UTR mRNA Measured in Cell-Based System Using Plate Reader - 2078-01_Inhibitor_Dose_DryPowder_Activity. [Related pubchem assays (depositor defined):AID488894]", "format": "functional", "conditions": "Homo sapiens"}, "[8]": {"test": "Vero E6 cell cytotoxicity, dose response, cytotoxicity control for non-replicating M. tuberculosis project, secondary assay (AID 492998)", "format": "functional, VeroE6", "conditions": "Vero C1008"}, "[9]": {"test": "viability of HCT116 lacking mutant beta-catenin – cell-based, human colon tumor, dose response (AID 1045);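 also: cells exposed to compound for 60 hours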", "format": "functional"}, "cells": {"test": "cells", "format": "functional"}, "[10]": {"test": "Trypanosoma cruzi growth suppression in host cells – NIH3T3 host cells, beta-gal luminescence, confirmation (AID 2044);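 also: intracellular parasites grown in NIH/3T3 mouse fibroblasts as host cells; luminescent beta-galactosidase reporter signal from transgenic T. cruzi replicating inside host cells; inhibitors lower the luminescence signal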", "format": "functional, cell-based"}, "Estrogen receptor": {"biological_target": "T4, Estrogen receptor (Homo sapiens, UniProt P03372)", "T4 sequence (P03372 whole entry)": "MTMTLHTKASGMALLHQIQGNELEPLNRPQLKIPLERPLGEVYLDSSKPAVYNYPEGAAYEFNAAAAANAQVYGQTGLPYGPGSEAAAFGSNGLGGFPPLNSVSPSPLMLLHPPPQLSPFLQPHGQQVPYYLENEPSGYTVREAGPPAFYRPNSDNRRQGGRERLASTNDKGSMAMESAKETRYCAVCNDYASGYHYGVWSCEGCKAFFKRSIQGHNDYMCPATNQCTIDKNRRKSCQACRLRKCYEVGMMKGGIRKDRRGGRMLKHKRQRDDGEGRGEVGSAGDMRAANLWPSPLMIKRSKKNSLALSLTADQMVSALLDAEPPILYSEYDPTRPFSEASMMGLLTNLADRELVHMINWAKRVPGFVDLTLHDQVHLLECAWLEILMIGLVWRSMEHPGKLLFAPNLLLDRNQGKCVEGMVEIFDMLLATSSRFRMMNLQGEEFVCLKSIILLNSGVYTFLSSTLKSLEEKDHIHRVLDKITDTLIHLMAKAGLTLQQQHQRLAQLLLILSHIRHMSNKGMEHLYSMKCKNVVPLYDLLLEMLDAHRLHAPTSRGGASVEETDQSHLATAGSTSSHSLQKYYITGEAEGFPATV"}, "[11]": {"biological_target": "Luciferin 4-monooxygenase (Photinus pyralis, UniProt P08659)", "sequence (P08659 whole entry)": "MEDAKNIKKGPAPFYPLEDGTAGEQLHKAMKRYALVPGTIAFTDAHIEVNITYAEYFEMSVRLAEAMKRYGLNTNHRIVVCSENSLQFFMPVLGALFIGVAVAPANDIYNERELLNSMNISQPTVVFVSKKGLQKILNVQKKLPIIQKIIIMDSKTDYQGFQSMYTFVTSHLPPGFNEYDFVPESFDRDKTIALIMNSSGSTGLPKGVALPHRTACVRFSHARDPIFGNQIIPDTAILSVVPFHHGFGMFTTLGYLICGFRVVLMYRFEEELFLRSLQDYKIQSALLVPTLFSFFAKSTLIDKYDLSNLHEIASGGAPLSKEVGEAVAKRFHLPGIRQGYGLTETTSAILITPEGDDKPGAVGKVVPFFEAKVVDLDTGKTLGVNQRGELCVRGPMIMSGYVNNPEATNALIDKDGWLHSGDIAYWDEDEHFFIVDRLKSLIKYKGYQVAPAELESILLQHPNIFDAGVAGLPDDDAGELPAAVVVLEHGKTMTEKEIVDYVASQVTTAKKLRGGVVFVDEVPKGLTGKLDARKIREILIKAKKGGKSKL", "test": "Counter Screen for Luciferase-based Assay Positives. [Related pubchem assays: 620, 618, 411 ]"}, "H4 [12]": {"tested_on": "H4", "test": "inhibitors of control reporter signal in H4 cells – cell-based, plate reader, dry powder samples, counter-screen for prion reporter project, dose response (AID 540255)", "format": "functional", "conditions": "Homo sapiens"}, "Cytochrome P450 2D6": {"biological_target": "Cytochrome P450 2D6 (Homo sapiens, UniProt P10635)", "sequence (P10635 whole entry)": "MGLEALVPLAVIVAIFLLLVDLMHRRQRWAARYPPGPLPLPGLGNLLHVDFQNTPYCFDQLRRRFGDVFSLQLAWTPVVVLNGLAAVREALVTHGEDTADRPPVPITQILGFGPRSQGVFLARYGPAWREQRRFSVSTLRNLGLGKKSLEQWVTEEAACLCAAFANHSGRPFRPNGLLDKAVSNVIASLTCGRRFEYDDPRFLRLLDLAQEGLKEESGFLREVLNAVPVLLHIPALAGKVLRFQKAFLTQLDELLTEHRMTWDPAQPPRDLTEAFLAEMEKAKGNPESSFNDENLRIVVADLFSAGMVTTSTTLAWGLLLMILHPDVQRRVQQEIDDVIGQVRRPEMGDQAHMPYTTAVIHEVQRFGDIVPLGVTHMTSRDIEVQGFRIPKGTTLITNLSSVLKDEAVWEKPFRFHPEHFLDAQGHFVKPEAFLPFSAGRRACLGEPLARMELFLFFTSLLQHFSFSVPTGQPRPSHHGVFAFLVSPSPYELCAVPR"}, "[13]": {"test": "NIH3T3 cell viability loss – ATP luminescence, mouse fibroblasts, counter-screen, dose response (AID 2010);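 also: cells exposed to compound for about 90 hours before reading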", "format": "functional, cell-based"}, "H4 [14]": {"tested_on": "H4", "test": "Amyloid Precursor 5' UTR neuroblastoma cell reporter line Measured in Cell-Based System Using Plate Reader - 2078-04_Inhibitor_Dose_DryPowder_Activity. [Related pubchem assays (depositor defined):AID488894]", "format": "functional", "conditions": "Homo sapiens"}}, "note": "Calls of active or inactive are those of the source."}
{"smiles": "Cc1ccc(C(=O)N/N=C/c2ccc([N+](=O)[O-])s2)cc1", "values": [{"measurement": "EC50", "setting": "HT-1080", "result": "> 50 µM (not active)"}, {"measurement": "IC50", "setting": "[1]", "result": "> 80 µM (inactive)"}, {"measurement": "EC50", "setting": "[2]", "result": "5.16 µM (active)"}, {"measurement": "AC50", "setting": "Cytochrome P450 2C19", "result": "39.8 µM (inconclusive)"}, {"measurement": "CC50", "setting": "[3]", "result": "12.2 µM (active)"}, {"measurement": "AC50", "setting": "[4]", "result": "2.2 µM (active)"}, {"measurement": "EC50", "setting": "[5]", "result": "0.324 µM (active)"}, {"measurement": "EC50", "setting": "[6]", "result": "3.05 µM (active)"}, {"measurement": "EC50", "setting": "Streptokinase A", "result": "> 150 µM (not active)"}, {"measurement": "EC50", "setting": "Streptococcus", "result": "14.3 µM (active)"}, {"measurement": "AC50", "setting": "H4 [7]", "result": "0.875 µM (active)"}, {"measurement": "CC50", "setting": "[8]", "result": "11.5 µM (active)"}, {"measurement": "EC50", "setting": "[9]", "result": "3.5 µM (active)"}, {"measurement": "IC50", "setting": "cells", "result": "5.2 µM (active)"}, {"measurement": "EC50", "setting": "[10]", "result": "0.72 µM (active)"}, {"measurement": "IC50", "setting": "Estrogen receptor", "result": "21.1 µM (active)"}, {"measurement": "EC50", "setting": "[11]", "result": "3.5 µM (active)"}, {"measurement": "AC50", "setting": "H4 [12]", "result": "3.18 µM (active)"}, {"measurement": "AC50", "setting": "Cytochrome P450 2D6", "result": "15.8 µM (inconclusive)"}, {"measurement": "EC50", "setting": "[13]", "result": "> 30 µM (not active)"}, {"measurement": "AC50", "setting": "H4 [14]", "result": "3 µM (active)"}]}
